Reference: patent US11578056B2, “Solid forms comprising (S)-2-(2,6-dioxopiperidin-3-yl)-4-((2-fluoro-4-((3-morpholinoazetidin-1-yl)methyl)benzyl)amino)isoindoline-1,3-dione and salts thereof, and compositions comprising and methods of using the same” (Celgene Corporation, priority 2019, dated 2023)
pEC50, pIC50: −log10 of the molar value.

Legend:
Assay in all cases: Hematological cell line viability/apoptosis flow cytometry assay
Assay type in all cases: cell-based
[1] = test system: CARNAVAL cell line; settings: CARNAVAL (DLBCL), 120 h
Method in brief: (§1)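 Tumor cell lines were exposed for 5 days to compound (0.00015–10 μM) or 0.1% DMSO. Annexin V-negative, DRAQ7-negative cells were counted as viable relative to DMSO, and Annexin V-positive cells as apoptotic; nonlinear variable-slope fits gave IC50 and EC50.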

[2] = test system: DOHH2 cell line; settings: DOHH2 (FL); 120 h
Method in brief: as §1

[3] = test system: KARPAS-422 cell line; settings: KARPAS-422 (DLBCL GCB); 120 h
Method in brief: as §1

[4] = test system: MDS-L cell line; settings: 120 h
Method in brief: as §1

[5] = test system: Pfeiffer cell line; settings: Pfeiffer (DLBCL GCB); 120 h
Method in brief: as §1

[6] = test system: RL cell line; settings: RL (FL); 120 h
Method in brief: as §1

[7] = test system: SU-DHL-10 cell line; settings: SU-DHL-10 (DLBCL GCB); 120 h
Method in brief: as §1

[8] = test system: SU-DHL-4 cell line; settings: SU-DHL-4 (DLBCL GCB); 120 h
Method in brief: as §1

[9] = test system: SU-DHL-6 cell line; settings: SU-DHL-6 (DLBCL GCB); 120 h
Method in brief: as §1

[10] = test system: U-2904 cell line; settings: U-2904 (DLBCL), 120 h
Method in brief: as §1

[11] = test system: U-2940 cell line; settings: U-2940 (DLBCL PMBL); 120 h
Method in brief: as §1

[12] = test system: U-2973 cell line; settings: 120 h
Method in brief: as §1

[13] = test system: VAL cell line; settings: VAL (DLBCL), 120 h
Method in brief: as §1

[14] = test system: WSU-DLCL cell line; settings: WSU-DLCL (DLBCL GCB), 120 h
Method in brief: as §1

With O=C1CC[C@H](N2C(=O)c3cccc(NCc4ccc(CN5CC(N6CCOCC6)C5)cc4F)c3C2=O)C(=O)N1 [Compound 1, (S)-2-(2,6-dioxopiperidin-3-yl)-4-((2-fluoro-4-((3-morpholinoazetidin-1-yl)methyl)benzyl)amino)isoindoline-1,3-dione] the “% Viable Cells AUC” value [1] was 110.6, the “% Viable Cells Emax” value [1] was 7.134% and the “Apoptosis AUC” value [1] was 708.7. For the same molecule, the “Apoptosis Ymax” value [1] was 77.84%, the pEC50 [1] was 6.82 and the pIC50 ([1]; read-out: % Viable Cells IC50) was 8.04. The “% Viable Cells AUC” value [2] was 6.902, the “% Viable Cells Emax” value [2] was 0.2066% and the “Apoptosis AUC” value [2] was 923.9. The “Apoptosis Ymax” value [2] was 95.1%, the “% Viable Cells AUC” value [3] was 19.97 and the “% Viable Cells Emax” value [3] was 0.8721%. The “Apoptosis AUC” value [3] was 911.9, the “Apoptosis Ymax” value [3] was 93.99% and the “% Viable Cells AUC” value [4] was 182.6. The “% Viable Cells Emax” value [4] was 146.7%, the “Apoptosis AUC” value [4] was 425.4 and the “Apoptosis Ymax” value [4] was 100%. For the same molecule, the pEC50 [4] was 5.81, the pIC50 ([4]; read-out: % Viable Cells IC50) was 7.29 and the “% Viable Cells AUC” value [5] was 313.5. The “% Viable Cells Emax” value [5] was 24.49%, the “Apoptosis AUC” value [5] was 493.3 and the “Apoptosis Ymax” value [5] was 51.82%. For the same molecule, the “% Viable Cells AUC” value [6] was 234.8, the “% Viable Cells Emax” value [6] was 21.55% and the “Apoptosis AUC” value [6] was 115.9. For the same molecule, the “Apoptosis Ymax” value [6] was 13.93%, the “% Viable Cells AUC” value [7] was 10.36 and the “% Viable Cells Emax” value [7] was 0.6716%. For the same molecule, the “Apoptosis AUC” value [7] was 903, the “Apoptosis Ymax” value [7] was 92.27% and the “% Viable Cells AUC” value [8] was 296.2. The “% Viable Cells Emax” value [8] was 23.44%, the “Apoptosis AUC” value [8] was 209 and the “Apoptosis Ymax” value [8] was 25.33%. For the same molecule, the “% Viable Cells AUC” value [9] was 19.94, the “% Viable Cells Emax” value [9] was 0.2469% and the “Apoptosis AUC” value [9] was 920.7. For the same molecule, the “Apoptosis Ymax” value [9] was 95.92%, the “% Viable Cells AUC” value [10] was 334.1 and the “% Viable Cells Emax” value [10] was 7.609%. For the same molecule, the “Apoptosis AUC” value [10] was 456.1, the “Apoptosis Ymax” value [10] was 77.39% and the pEC50 [10] was 5.48. For the same molecule, the pIC50 ([10]; read-out: % Viable Cells IC50) was 6.70, the “% Viable Cells AUC” value [11] was 70.43 and the “% Viable Cells Emax” value [11] was 5.192%. The “Apoptosis AUC” value [11] was 792.5, the “Apoptosis Ymax” value [11] was 82.19% and the “% Viable Cells AUC” value [12] was 853.4. For the same molecule, the “% Viable Cells Emax” value [12] was 19.45%, the “Apoptosis AUC” value [12] was 391.9 and the “Apoptosis Ymax” value [12] was 60.8%. The “% Viable Cells AUC” value [13] was 14.62, the “% Viable Cells Emax” value [13] was 0.9632% and the “Apoptosis AUC” value [13] was 936.7. The “Apoptosis Ymax” value [13] was 95.68%, the pEC50 [13] was 9.22 and the pIC50 ([13]; read-out: % Viable Cells IC50) was 9.24. The “% Viable Cells AUC” value [14] was 341.9, the “% Viable Cells Emax” value [14] was 27.83% and the “Apoptosis AUC” value [14] was 565.1. The “Apoptosis Ymax” value [14] was 59.91%, the pEC50 [14] was 7.74 and the pIC50 ([14]; read-out: % Viable Cells IC50) was 6.85.
